Consider 12 compounds from patent publication US10464947B2 (Incyte Corporation, priority 2013, dated 2019).

The test system of one assay is C-myc in KMS.12.BM cells. Briefly: KMS.12.BM C-Myc ELISA Assay (Example C1). The format is cell-based. Conditions: Homo sapiens, 2 h. The method, then:
KMS.12.BM C-Myc ELISA Assay
KMS.12.BM cell line (human myeloma) was purchased from JCRB (Osaka, Japan) and maintained in RPMI with 10% FBS culture medium. To measure the C-myc inhibitory activity of the compounds, the KMS.12.BM cells are plated in the RPMI culture medium at 75000 cells/well/per 200 μL into a 96-well flat bottom polystyrene tissue culture plate (Corning through VWR, NJ), in the presence or absence of a concentration range of test compounds. After 2 h, cells are pelleted and lysed with Cell Extraction Buffer (BioSource, Carlsbad, Calif.) in the presence of protease inhibitors (Life Technologies, Grand Island, N.Y. and Sigma, St Louis, Mo.). Clarified lyses are tested in a C-myc commercial ELISA (Life Technologies, Grand Island, N.Y.).
(In an ELISA, binding on a coated surface is turned into a signal by an enzyme label.)

Another assay deals with KMS.12.BM cells. Briefly: KMS.12.BM Cell Viability Assay (Example B1). The assay is classed as cell-based, human. Conditions: Homo sapiens, 72 h, 3 days, Cell Titer-GLO, read-out: KMS cellular IC50. In a few lines: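 KMS.12.BM human myeloma cells, 5000 cells/well in RPMI with 10% FBS, exposed to a compound concentration range for 3 days. Viable cells measured by ATP-based Cell Titer-GLO luminescence after 10 min at room temperature.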

Where two headings read alike, the source gives them in different places.

For `Cc1noc(C)c1-c1ccc2nc(NC(C)CO)n3c2c1OCC3c1ccccc1` (single isomer, unassigned) [Example 30, 2-{[7-(3,5-Dimethylisoxazol-4-yl)-4-phenyl-4,5-dihydroimidazo[1,5,4-de][1,4]benzoxazin-2-yl]amino}propan-1-ol], the IC50 in the assay on C-myc in KMS.12.BM cells and with KMS.12.BM cells was under 1000 nM throughout.

In the assay on C-myc in KMS.12.BM cells, `Cc1noc(C)c1-c1ccc2nc(C3CCNC3)n3c2c1OC[C@@H]3c1ccccn1` (single isomer, unassigned) [Example 106A] gave an IC50 of under 1000 nM. On to `CCNC(=O)c1ncccc1C1COc2c(-c3c(C)noc3C)ccc3[nH]c(=O)n1c23` (single isomer, unassigned) [Example 133, 3-[7-(3,5-dimethylisoxazol-4-yl)-2-oxo-1,2,4,5-tetrahydroimidazo[1,5,4-de][1,4]benzoxazin-4-yl]-N-ethylpyridine-2-carboxamide], for which the half-maximal inhibitory concentration (IC50) in the assay on C-myc in KMS.12.BM cells and in the assay with KMS.12.BM cells was under 1000 nM each time. In the case of `Cc1noc(C)c1-c1ccc2[nH]c(=O)n3c2c1OCC3c1cccnc1C(=O)NC1CC1` (single isomer, unassigned) [Example 134, N-Cyclopropyl-3-[7-(3,5-dimethylisoxazol-4-yl)-2-oxo-1,2,4,5-tetrahydroimidazo[1,5,4-de][1,4]benzoxazin-4-yl]pyridine-2-carboxamide], the IC50 in the assay with C-myc in KMS.12.BM cells and in the assay on KMS.12.BM cells was under 1000 nM each time. `Cc1noc(C)c1-c1cc(C(C)O)c2[nH]c(=O)n3c2c1OC[C@@H]3c1ccccn1` (single isomer, unassigned) [Example 144A]: the IC50 with C-myc in KMS.12.BM cells and in the assay with KMS.12.BM cells was under 1000 nM each time. Consider `Cc1noc(C)c1-c1ccc2c3c1OCC(c1ccccc1)n3c(=O)n2C` (stereo not shown) [Example 2, 7-(3,5-Dimethylisoxazol-4-yl)-1-methyl-4-phenyl-4,5-dihydroimidazo[1,5,4-de][1,4]benzoxazin-2(1H)-one], for which the IC50 in the assay on C-myc in KMS.12.BM cells and in the assay with KMS.12.BM cells was under 1000 nM throughout. With `Cc1noc(C)c1-c1ccc2[nH]c(=O)n3c2c1OC(C)C3c1ccccc1` (stereo not shown) [Example 3, 7-(3,5-Dimethylisoxazol-4-yl)-5-methyl-4-phenyl-4,5-dihydroimidazo[1,5,4-de][1,4]benzoxazin-2(1H)-one], the concentration for half-maximal inhibition (IC50) with C-myc in KMS.12.BM cells and with KMS.12.BM cells was under 1000 nM throughout.

As for `Cc1noc(C)c1-c1ccc2[nH]c(=O)n3c2c1OCC3c1ccc(C#N)cc1` (stereo not shown) [Example 4, 4-[7-(3,5-Dimethylisoxazol-4-yl)-2-oxo-1,2,4,5-tetrahydroimidazo[1,5,4-de][1,4]benzoxazin-4-yl]benzonitrile], the IC50 in the assay on C-myc in KMS.12.BM cells and in the assay with KMS.12.BM cells was under 1000 nM throughout. For the compound `Cc1noc(C)c1-c1ccc2[nH]c(=O)n3c2c1OCC3c1cccnc1` (stereo not shown) [Example 5, 7-(3,5-Dimethylisoxazol-4-yl)-4-pyridin-3-yl-4,5-dihydroimidazo[1,5,4-de][1,4]benzoxazin-2(1H)-one], the half-maximal inhibitory concentration (IC50) in the assay with C-myc in KMS.12.BM cells and in the assay with KMS.12.BM cells was under 1000 nM throughout. `COc1ccccc1C1COc2c(-c3c(C)noc3C)ccc3[nH]c(=O)n1c23` (stereo not shown) [Example 7, 7-(3,5-Dimethylisoxazol-4-yl)-4-(2-methoxyphenyl)-4,5-dihydroimidazo[1,5,4-de][1,4]benzoxazin-2(1H)-one]: the IC50 in the assay with C-myc in KMS.12.BM cells and in the assay on KMS.12.BM cells was under 1000 nM throughout. `Cc1noc(C)c1-c1ccc2[nH]c(=O)n3c2c1OCC3c1ccc(F)cc1F` (stereo not shown) [Example 8, 7-(3,5-Dimethylisoxazol-4-yl)-4-(2,4-difluorophenyl)-4,5-dihydroimidazo[1,5,4-de][1,4]benzoxazin-2(1H)-one]: the IC50 with C-myc in KMS.12.BM cells and in the assay on KMS.12.BM cells was under 1000 nM in each case. With `Cc1noc(C)c1-c1cc(C#N)c2[nH]c(=O)n3c2c1OCC3c1ccccn1` (stereo not shown) [Example 269A, 7-(3,5-dimethylisoxazol-4-yl)-2-oxo-4-pyridin-2-yl-1,2,4,5-tetrahydroimidazo[1,5,4-de][1,4]benzoxazine-9-carbonitrile], the IC50 in the assay on KMS.12.BM cells (KMS-12-BM) was under 1000 nM.

One may read the IC50 as the midpoint of a concentration-inhibition curve.
